Assays:
[1] = target: Cathepsin D (Homo sapiens, UniProt P07339)
[2] = target: T1, Beta-secretase 1 (Homo sapiens, UniProt P56817)
[3] = target: T1, Beta-secretase 1; remark: listed apart in the source
[4] = species on record: Rattus norvegicus; details: dose 10 mg/kg; route oral
[5] = species on record: Rattus norvegicus; test: animal or person; details: Sprague-Dawley, Cerebrospinal fluid, po, 4 h, read-out: INH
[6] = species on record: Rattus norvegicus; details: dose 10 mg/kg; route oral; remark: listed apart in the source

T1 sequence (P56817 whole entry): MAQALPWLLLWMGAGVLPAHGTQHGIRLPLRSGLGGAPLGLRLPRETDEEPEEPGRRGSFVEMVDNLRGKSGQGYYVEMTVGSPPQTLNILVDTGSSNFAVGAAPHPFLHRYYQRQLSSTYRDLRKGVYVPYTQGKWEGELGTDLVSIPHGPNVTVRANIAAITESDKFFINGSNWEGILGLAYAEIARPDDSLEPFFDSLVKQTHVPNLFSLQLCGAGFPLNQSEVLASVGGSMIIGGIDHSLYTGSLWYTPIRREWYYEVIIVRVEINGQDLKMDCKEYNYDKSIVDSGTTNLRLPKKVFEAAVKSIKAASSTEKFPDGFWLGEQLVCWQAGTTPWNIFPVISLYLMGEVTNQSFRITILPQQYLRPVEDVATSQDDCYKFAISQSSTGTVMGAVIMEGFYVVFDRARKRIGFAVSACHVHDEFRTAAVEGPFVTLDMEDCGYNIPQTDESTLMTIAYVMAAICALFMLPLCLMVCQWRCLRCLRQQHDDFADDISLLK
Chain of Cathepsin D (P07339 65-162 limits assumed): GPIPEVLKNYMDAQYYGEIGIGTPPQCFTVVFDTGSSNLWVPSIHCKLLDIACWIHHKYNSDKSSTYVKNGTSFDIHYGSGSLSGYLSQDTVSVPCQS
Chain of Cathepsin D (P07339 169-412 limits assumed): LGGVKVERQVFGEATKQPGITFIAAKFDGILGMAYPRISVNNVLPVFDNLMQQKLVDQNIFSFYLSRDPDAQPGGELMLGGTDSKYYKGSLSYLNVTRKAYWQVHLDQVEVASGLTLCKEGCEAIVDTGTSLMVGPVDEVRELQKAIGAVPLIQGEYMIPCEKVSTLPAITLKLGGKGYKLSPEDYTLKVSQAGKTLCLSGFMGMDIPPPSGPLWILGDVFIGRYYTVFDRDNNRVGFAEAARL

| IC50 [1] [nM] | IC50 [2] [nM] | IC50 [3] [nM] | Compound | fEC50 [4] [nM] | inhibition in vivo at 10 mg/kg [5] [%] | fEC50 [6] [nM] |
| --- | --- | --- | --- | --- | --- | --- |
| 710 | 7.4 | 0.9 | CC1(C)C=C(c2cc3c(cn2)Oc2ccc(-c4cccnc4F)cc2[C@@]32COC(N)=N2)CCO1 | 34 | 76 | 57 |
| 3870 | 15 | 2.4 | Cc1cc(-c2cc3c(cn2)Oc2ccc(-c4cccnc4F)cc2[C@@]32COC(N)=N2)ccn1 | 30 | 60 | 62 |
| 1080 | 7.9 | 0.5 | NC1=N[C@@]2(CO1)c1cc(-c3cccnc3F)ccc1Oc1cnc(C3=CCCOC3)cc12 | 16 |  | 31 |
| 3390 | 49.5 | 7.1 | NC1=N[C@@]2(CO1)c1cc(-c3cccnc3F)ccc1Oc1cnc(C3CCOCC3)cc12 | 339 |  | 659 |
| 650 | 25.3 | 1.4 | NC1=N[C@@]2(CO1)c1cc(-c3cccnc3F)ccc1Oc1cnc(-c3ccccc3)cc12 |  |  |  |
| 4100 | 26.6 | 3.8 | NC1=N[C@@]2(CO1)c1cc(-c3cccnc3F)ccc1Oc1cnc(-c3ccccn3)cc12 |  |  |  |
|  | 18.5 |  | NC1=N[C@]2(CO1)c1cc(C3=CCOCC3)ccc1Oc1ccc(-c3cccnc3F)cc12 |  |  |  |
| 1040 |  |  | NC1=N[C@@]2(CO1)c1cc(-c3cccnc3F)ccc1Oc1cnc([C@H]3CCCCO3)cc12 |  |  |  |
| 2220 |  |  | NC1=N[C@@]2(CO1)c1cc(-c3cccnc3F)ccc1Oc1cnc(N3CC[C@H](F)C3)cc12 |  |  |  |
| 530 | 22 | 4 | CC1(C)CN(c2cc3c(cn2)Oc2ccc(-c4cccnc4F)cc2[C@@]32COC(N)=N2)CCO1 |  |  |  |
| 680 |  |  | NC1=N[C@@]2(CO1)c1cc(-c3cccnc3F)ccc1Oc1cnc(N3CC[C@@H](F)C3)cc12 |  |  |  |
| 5800 | 123 | 11.3 | NC1=N[C@@]2(CO1)c1cc(-c3cccnc3F)ccc1Oc1cnc(C3CCCOC3)cc12 (some centres undefined) |  |  |  |
| 3190 | 16 | 2.5 | NC1=N[C@@]2(CO1)c1cc(-c3cccnc3F)ccc1Oc1cnc(-c3ccncc3)cc12 | 365 | 56 | 745 |
| 11600 |  |  | NC1=N[C@@]2(CO1)c1cc(-c3cccnc3F)ccc1Oc1cnc([C@@H]3CCCCO3)cc12 |  |  |  |
| 640 | 4.2 | 0.7 | NC1=N[C@@]2(CO1)c1cc(-c3cccnc3F)ccc1Oc1cnc(C3=CCOCC3)cc12 | 27 |  | 60 |

| Compound | IC50 [1] [nM] | IC50 [2] [nM] | IC50 [3] [nM] | fEC50 [4] [nM] | inhibition in vivo at 10 mg/kg [5] [%] | fEC50 [6] [nM] |
| --- | --- | --- | --- | --- | --- | --- |
| NC1=N[C@@]2(CO1)c1cc(-c3cccnc3F)ccc1Oc1cnc(N3CCOCC3)cc12 | 600 | 20.5 |  |  |  |  |
| NC1=N[C@@]2(CO1)c1cc(-c3cccnc3F)ccc1Oc1cnc(N3CCC(F)(F)CC3)cc12 | 140 | 8.7 |  |  |  | 54 |
| NC1=N[C@@]2(CO1)c1cc(-c3cccnc3F)ccc1Oc1cnc(N3CCC(F)(F)C3)cc12 | 440 | 4.1 |  | 32 |  | 38 |
